The values below come from US7235375B2, “Organic anion transport proteins” (Bristol-Myers Squibb Company, priority 1999, dated 2007).

Molecules are shown by their SMILES. Read-outs that look alike come from different tables or passages of the source.

The target in the data set is T1, OATP2 (Homo sapiens, UniProt Q9Y6L6, N130D).
T1 sequence (Q9Y6L6 1-691 N130D): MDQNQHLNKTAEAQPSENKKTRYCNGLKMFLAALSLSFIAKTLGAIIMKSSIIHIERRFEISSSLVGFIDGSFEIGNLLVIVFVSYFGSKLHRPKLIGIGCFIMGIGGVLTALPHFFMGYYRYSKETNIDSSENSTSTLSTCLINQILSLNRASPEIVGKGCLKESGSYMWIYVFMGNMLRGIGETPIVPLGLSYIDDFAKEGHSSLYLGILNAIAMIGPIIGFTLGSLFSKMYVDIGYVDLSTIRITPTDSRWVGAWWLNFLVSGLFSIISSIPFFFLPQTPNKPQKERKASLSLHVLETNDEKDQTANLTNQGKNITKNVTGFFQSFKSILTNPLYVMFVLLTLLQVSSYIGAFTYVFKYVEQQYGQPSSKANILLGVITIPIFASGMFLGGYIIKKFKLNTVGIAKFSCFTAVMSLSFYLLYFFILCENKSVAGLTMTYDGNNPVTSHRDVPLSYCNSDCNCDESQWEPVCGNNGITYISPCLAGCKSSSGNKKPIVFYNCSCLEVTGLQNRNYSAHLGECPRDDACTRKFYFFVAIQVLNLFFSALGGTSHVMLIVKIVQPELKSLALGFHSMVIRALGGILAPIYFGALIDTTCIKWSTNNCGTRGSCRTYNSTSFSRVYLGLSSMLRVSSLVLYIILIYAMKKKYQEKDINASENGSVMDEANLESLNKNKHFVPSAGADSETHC
The conditions noted are these: 293EBNA (HEK293 derivative) cells transfected with pCEP-OATP2 or empty vector (MOCK), uptake for 5 minutes, absence and presence of excess unlabeled substrate, FIG. 2. As for the experimental part: An assay for the measurement of OATP activity is performed as follows: HEK293 cells are plated in Dulbeccos Modified Eagles Medium (DMEM) plus 10% fetal bovine serum plus penicillin and streptomycin, in poly-d-lysine coated dishes and co-transfected with OATP transporter expression plasmids using Lipofectamine Plus (Life Technologies, Inc.). The cells and media are assayed for substrate transport 24 hours later. Alternatively, cell lines engineered to stably express OATPs could be plated and assayed directly without transfection. To measure transport, media is removed and monolayers are assayed in triplicate by washing once in serum-free DMEM and adding the same medium containing [^3H]-substrate alone or in the presence of various concentrations of unlabeled test compounds. […] The transport activity is expressed as moles of substrate transported into cells/mg of cell protein/minute. […]
293EBNA cells (Invitrogen, Inc.), an HEK293 cell derivative, were transiently transfected with the OATP2 expression vector pCEP-OATP2, or the pCEP4 vector alone (MOCK) and the transport of [^3H]-labeled substrates was determined 24 hours later. […] The uptake of radiolabeled substrate for 5 minutes into cells transfected with pCEP-OATP2 or empty vector (MOCK) was determined in the absence (solid bars) and presence (open bars) of excess unlabeled substrate.

In the case of `NC(Cc1cc(I)c(Oc2cc(I)c(O)c(I)c2)c(I)c1)C(=O)O` (centres unmarked) [thyroid hormone (T4)], the “transport (specific uptake of radiolabeled substrate) by OATP2” value is recorded as “specific uptake”. Besides, the “transport (specific uptake of radiolabeled substrate) by OATP2” value (listed as thyroid hormone (T)) is on record as “transports”.
